{"source": "patent US20050058707A1", "about": "“Uniform delivery of topiramate over prolonged period of time with enhanced dispersion formulation” (priority 2003, published 2005)", "key": {"[1]": {"conditions": "Physicians' Desk Reference; cited from earlier work"}, "[2]": {"test": "Aqueous solubility of topiramate", "format": "physicochemical", "conditions": "37 °C, thermodynamic from solid", "method": "Aqueous solubility is determined by adding the therapeutic agent to stirred or agitated water maintained in a constant temperature bath at a temperature of 37 degrees centigrade until no more agent dissolves. The resulting solution saturated with active agent is then filtered, typically under pressure through a 0.8-micron Millipore filter, and the concentration in solution is measured by any appropriate analytical method including gravimetric, ultraviolet spectrophometry, chromatography, and the like."}}, "note": "Like-named read-outs stand apart in the source and are kept apart here."}
{"smiles": "CC1(C)O[C@@H]2[C@@H](CO[C@@]3(COS(N)(=O)=O)OC(C)(C)O[C@@H]23)O1", "note": "[Topiramate, topiramate]", "values": [{"measurement": "solubility in water", "setting": "[1]", "value": "about 9.8 mg/ml"}, {"measurement": "solubility", "setting": "[2]; de-ionized water, read-out: Solubility of neat topiramate measured in de-ionized water", "value": 12, "unit": "mg/mL"}, {"measurement": "solubility", "setting": "[2]; water, read-out: solubility", "value": "9.8 to 13", "unit": "mg/mL"}]}
